# The source made the active and inactive calls. No cut-off for these calls is given here.
# Assays:
# [1] = Binding affinity to guanosine monophosphate (unknown origin) at 5 uM by fluorescence method
# [2] = Binding affinity to c-di-GMP (unknown origin) at 5 uM using varying level of c-di-GMP by fluorescence method
# Pseudomonas aeruginosa [3] = assay: Antibacterial activity against Pseudomonas aeruginosa PAO1 harboring wspF gene mutation assessed as reduction in bacterial growth at 0.15625 to 2.5 uM by confocal microscopic method; assay type: functional, organism-based; settings: dose 0.15625-2.5 µM
# [4] = Binding affinity to r-NTP (unknown origin) at 5 uM by fluorescence method
# Pseudomonas aeruginosa [5] = assay: Effect on swarming capacity of Pseudomonas aeruginosa PAO1 harboring wspF gene mutation assessed as increase in motility at 2.5 uM incubated for 14 hrs relative to control; assay type: functional
# c-di-GMP G-quadruplex [6] = assay: Downregulation of c-di-GMP level in Pseudomonas aeruginosa PAO1 harboring wspF gene mutation assessed as reduction in Alg44 expression at 1.25 uM incubated for 15 hrs by transcriptome analysis
# c-di-GMP G-quadruplex [7] = assay: Induction of c-di-GMP G-quadruplex formation in Pseudomonas aeruginosa PAO1 harboring wspF gene mutation assessed as inhibition of biofilm formation incubated for 24 hrs by confocal microscopic method; assay type: nucleic-acid assay
# [8] = Cytotoxicity against human AC16 cells assessed as cell survival at 1.25 uM incubated for 24 hrs by MTT assay relative to control; assay type: cell-based, AC16 [Human hybrid]; settings: read-out: Survival
# c-di-GMP G-quadruplex [9] = assay: Induction of c-di-GMP G-quadruplex formation in Pseudomonas aeruginosa PAO1 harboring wspF gene mutation assessed as induction of flhA expression at 1.25 uM incubated for 15 hrs by transcriptome analysis
# c-di-GMP G-quadruplex [10] = assay: Induction of c-di-GMP G-quadruplex formation in Pseudomonas aeruginosa PAO1 harboring wspF gene mutation assessed as induction of fliD expression at 1.25 uM incubated for 15 hrs by transcriptome analysis
# c-di-GMP G-quadruplex [11] = assay: Induction of c-di-GMP G-quadruplex formation in Pseudomonas aeruginosa PAO1 harboring wspF gene mutation and LacZ reporter gene assessed as reduction in PelA expression by measuring decrease in lacZ activity at 0.3125 to 1.25 uM incubated for 4 hrs by absorbance method; settings: dose 0.3125-1.25 µM
# c-di-GMP G-quadruplex [12] = assay: Induction of c-di-GMP G-quadruplex formation in Pseudomonas aeruginosa PAO1 harboring wspF gene mutation assessed as reduction in pelB expression at 1.25 uM by RT-PCR method
# [13] = Binding affinity to d-NTP (unknown origin) at 5 uM by fluorescence method
# Pseudomonas aeruginosa [14] = assay: Effect on swarming capacity of Pseudomonas aeruginosa PAO1 harboring wspF gene mutation assessed as increase in motility at 5 uM incubated for 14 hrs relative to control; assay type: functional
# c-di-GMP G-quadruplex [15] = assay: Induction of c-di-GMP G-quadruplex formation in Pseudomonas aeruginosa PAO1 harboring wspF gene mutation assessed as induction of flgA expression at 1.25 uM incubated for 15 hrs by transcriptome analysis
# Pseudomonas aeruginosa [16] = assay: Antibacterial activity against Pseudomonas aeruginosa PAO1 assessed as reduction in biofilm formation at 0.15625 to 1.25 uM by crystal violet staining method; assay type: functional, organism-based; settings: dose 0.15625-1.25 µM
# Bacteria [17] = assay: Effect on WspR (unknown origin) assessed as reduction in c-di-GMP level at 1.25 to 5 uM measured by HPLC method; settings: dose 1.25-5 µM
# c-di-GMP G-quadruplex [18] = assay: Induction of c-di-GMP G-quadruplex formation in Pseudomonas aeruginosa PAO1 harboring wspF gene mutation assessed as inhibition of biofilm formation incubated for 20 hrs by crystal violet staining assay relative to control; assay type: nucleic-acid assay
# c-di-GMP G-quadruplex [19] = assay: Induction of c-di-GMP G-quadruplex formation in Pseudomonas aeruginosa PAO1 harboring wspF gene mutation assessed as induction of flhF expression at 1.25 uM incubated for 15 hrs by transcriptome analysis
# Pseudomonas aeruginosa [20] = assay: Effect on extracellular polysaccharide in Pseudomonas aeruginosa PAO1 harboring wspF gene mutation assessed as reduction in EPS production at 1.25 uM by congo red binding assay relative to control; assay type: functional; design: scale not given: the % may be the effect or the level left
# Pseudomonas aeruginosa [21] = assay: Effect on swarming capacity of Pseudomonas aeruginosa PAO1 harboring wspF gene mutation assessed as increase in motility at 3.75 uM incubated for 14 hrs relative to control; assay type: functional
# c-di-GMP G-quadruplex [22] = assay: Induction of c-di-GMP G-quadruplex formation in Pseudomonas aeruginosa PAO1 harboring wspF gene mutation assessed as reduction in cdrA expression at 1.25 uM by RT-PCR method
# Pseudomonas aeruginosa [23] = assay: Effect on extracellular polysaccharide in Pseudomonas aeruginosa PAO1 harboring wspF gene mutation assessed as reduction in EPS production at 0.15625 to 0.625 uM by congo red binding assay; assay type: functional, organism-based; settings: dose 0.15625-0.625 µM
# [24] = Cytotoxicity against human AC16 cells assessed as cell survival at 0.15625 to 10 uM incubated for 24 hrs by MTT assay relative to control; assay type: cell-based, AC16 [Human hybrid]; settings: dose 0.15625-10 µM, read-out: Survival
# c-di-GMP G-quadruplex [25] = assay: Induction of c-di-GMP G-quadruplex formation in Pseudomonas aeruginosa PAO1 harboring wspF gene mutation assessed as suppression of cdrA expression at 1.25 uM incubated for 15 hrs by transcriptome analysis
# c-di-GMP G-quadruplex [26] = assay: Induction of c-di-GMP G-quadruplex formation in Pseudomonas aeruginosa PAO1 harboring wspF gene mutation assessed as reduction in pslE expression at 1.25 uM by RT-PCR method
# DNA = assay: Toxicity assessed as induction of Escherichia coli pBR322 DNA intercalation activity at 10 uM incubated for 10 mins by polyacrylamide gel electrophoresis method
# c-di-GMP G-quadruplex [27] = assay: Induction of c-di-GMP G-quadruplex formation in Pseudomonas aeruginosa PAO1 harboring wspF gene mutation assessed as inhibition of biofilm formation at 1.25 uM incubated for 20 hrs by crystal violet staining assay relative to control; assay type: nucleic-acid assay
# c-di-GMP G-quadruplex [28] = assay: Induction of c-di-GMP G-quadruplex formation in Pseudomonas aeruginosa PAO1 harboring wspF gene mutation assessed as induction of fleN expression at 1.25 uM by RT-PCR method
# c-di-GMP G-quadruplex [29] = assay: Downregulation of c-di-GMP level in Pseudomonas aeruginosa PAO1 harboring wspF gene mutation assessed as induction of tpbA expression at 1.25 uM incubated for 15 hrs by transcriptome analysis
# c-di-GMP G-quadruplex [30] = assay: Induction of c-di-GMP G-quadruplex formation in Pseudomonas aeruginosa PAO1 harboring wspF gene mutation assessed as induction of fleN expression at 1.25 uM incubated for 15 hrs by transcriptome analysis
# c-di-GMP G-quadruplex [31] = assay: Induction of c-di-GMP G-quadruplex formation in Pseudomonas aeruginosa […] assessed as inhibition of biofilm formation at 0.15625 to 1.25 uM by confocal microscopic method; assay type: nucleic-acid assay; settings: PAO1, dose 0.15625-1.25 µM
# c-di-GMP G-quadruplex [32] = assay: Induction of c-di-GMP G-quadruplex formation in Pseudomonas aeruginosa PAO1 harboring wspF gene mutation assessed as induction of flhA expression at 1.25 uM by RT-PCR method
# Bacteria [33] = assay: Effect on RocR (unknown origin) assessed as induction of c-di-GMP degradation at 1.25 to 5 uM measured by HPLC method; settings: dose 1.25-5 µM
# Pseudomonas aeruginosa [34] = assay: Antibacterial activity against Pseudomonas aeruginosa PAO1 harboring wspF gene mutation assessed as reduction in bacterial growth at 512 uM by crystal violet staining assay relative to control; assay type: functional, organism-based
# Quadruplex DNA = assay: Induction of c-di-GMP G-quadruplex formation (unknown origin) measured at 300 nanometer by CD spectroscopy; assay type: nucleic-acid assay
smiles,measurement,setting,value
COc1cc(/C=C/c2sc3ccccc3[n+]2C)ccc1O.[I-],Activity,[1],Active
same,Activity,[2],Active
same,Activity,Pseudomonas aeruginosa [3],inactive
same,Activity,[4],Active
same,Activity,Pseudomonas aeruginosa [5],15%
same,Activity,c-di-GMP G-quadruplex [6],Active
same,Activity,c-di-GMP G-quadruplex [7],Dose-Dependent Effect
same,"viability at 24 h, 1.25 µM",[8],96%
same,Activity,c-di-GMP G-quadruplex [9],Active
same,Activity,c-di-GMP G-quadruplex [10],Active
same,Activity,c-di-GMP G-quadruplex [11],Active
same,Activity,c-di-GMP G-quadruplex [12],Active
same,Activity,[13],Active
same,Activity,Pseudomonas aeruginosa [14],77%
same,Activity,c-di-GMP G-quadruplex [15],Active
same,Activity,Pseudomonas aeruginosa [16],Active
same,Activity,Bacteria [17],inactive
same,IC50,c-di-GMP G-quadruplex [18],880 nM
same,Activity,c-di-GMP G-quadruplex [19],Active
same,Activity,Pseudomonas aeruginosa [20],30%
same,Activity,Pseudomonas aeruginosa [21],34%
same,Activity,c-di-GMP G-quadruplex [22],Active
same,Activity,Pseudomonas aeruginosa [23],Active
same,"viability at 24 h, up to 10 µM",[24],> 90%
same,Activity,c-di-GMP G-quadruplex [25],Active
same,Activity,c-di-GMP G-quadruplex [26],Active
same,Activity,DNA,Non-Toxic
same,inhibition,c-di-GMP G-quadruplex [27],62.2%
same,Activity,c-di-GMP G-quadruplex [28],Active
same,Activity,c-di-GMP G-quadruplex [29],Active
same,Activity,c-di-GMP G-quadruplex [30],Active
same,Activity,c-di-GMP G-quadruplex [31],Active
same,Activity,c-di-GMP G-quadruplex [32],Active
same,Activity,Bacteria [33],inactive
same,Activity,Pseudomonas aeruginosa [34],inactive
same,Activity,Quadruplex DNA,Active
